Values belong to the molecule of their own block, whether it stands above or below them. No end group written: not given here.
Assays:
αM I domain = target: T1, αM I domain (Homo sapiens, UniProt P11215); experiment: Binding of proMMP-9 to immobilized GST-αM I domain in the presence of competitor peptides (detected with GE-213 antibody); conditions: FIG. 4C
T1 construct: GST-αM and GST-αL I domain fusion proteins were expressed and purified as described previously (30); made in house
Protocol: (4C) Binding of proMMP-9 to the immobilized GST-αM I domain was studied in the presence of each peptide at the concentrations indicated. The binding was determined with the anti-MMP-9 antibody GE-213.
(§1) ICAM-1, fibrinogen, proMMP-8, proMMP-9 or the recombinant domains (0.5 μg/well in PBS) were coated on plastic 96-well plates at +4° C. for 16 h and the wells were blocked with 3% bovine serum albumin (BSA) in PBS for 2 h at room temperature. Binding of the GST-αM I domain was determined essentially as described in the first priority application. In the reverse assay, GST-αM I domain was coated and binding of proMMP-9 was determined using the GE-213 antibody. Competitor peptides were preincubated with the αM I-domain for 20 minutes before the experiment.

PMNs [1] = experiment: PMN adhesion to immobilized proMMP-9 (phosphatase assay); type: cell-based, human; conditions: PMA-stimulated PMNs; peptide 50 μM, antibody 20 μg/ml; FIG. 5C
Protocol: FIG. 5A to 5D. Recognition of recombinant MMP-9 domains by αMβ2 integrin-expressing cells. The studied cells were PMNs (5A, 5B, 5C), αMβ2 L-cell transfectants (5D), non-transfectants (5D), and LAD-1 cells (5D). PMNs were in resting state or stimulated with PMA (5A, 5C) or C5a or TNFα (5B) before the binding experiment to proMMP-9 or its domains. Cells were also pretreated with each peptide (50 μM), antibody (20 μg/ml) or the αM I domain as indicated. Unbound cells were removed by washing and the number of adherent cells was quantitated by a phosphatase assay. The experiment was repeated three times with similar results.
MMP-9 proteins (200 nM in PBS) were coated at +4° C. for 16 h and the microtiter wells were blocked with 3% BSA in PBS for 1 h at room temperature. The αMβ2-integrin L-cell transfectants and PMNs (1×10^5 cells/well) were suspended in RPMI medium supplemented with 2 mM MgCl2 and 0.1% BSA and activated with PMA (20 nM) for 20 min, or with C5a (50 nM) or TNF-α (10 nM) for 4 h at +37° C. The L926 wild type and LAD-1 cells were used as controls. The cells were treated with the indicated antibody (20 μg/ml) or peptide (50 μM) at +37° C. for 30 min, washed twice with serum-free medium and incubated in the microtiter wells at +37° C. for 30 min. The wells were washed with PBS, and the number of adherent cells was quantitated by a phosphatase assay (25).

[2] = tested on: intraperitoneal accumulation of PMNs; experiment: Mouse model of thioglycolate-induced peritonitis; type: in vivo; conditions: for inhibition of intraperitoneal accumulation of PMNs: intravenous tail injection, 3 h after thioglycolate, FIG. 7A; for prevention of thioglycolate-induced increase in gelatinase levels in intraperitoneal fluid (zymography): DDGW 0.1, HFDDDE 0.2, DFEDHD 0.2 mg per mouse intravenously, FIG. 7D
Protocol: (7A) Mice were injected with thioglycolate or PBS intraperitoneally. The peptides were applied intravenuously at the amounts indicated (A). After 3 h, the intraperitoneal leukocytes were harvested and counted. […] (*) indicates statistical significant difference (p<0.001). The experiment was repeated at least 3 times. The infiltrated neutrophils of mice treated with thioglycolate (7B) or PBS (7C) were stained with anti-MMP-9 and anti-αM, as described in the FIG. 3 legend. Fluorescence was studied by confocal microscopy. Bars: 9.1 μm and […], respectively.
(7D) Gelatinolytic activity of the supernatants from the peritoneal cavities of mice collected as in (7A). Lanes 1-4: samples are from thioglycolate-treated mice; lane 5: a sample from PBS-treated mouse. DDGW, HFDDDE, and DFEDHD were injected intravenously at doses of 0.1, 0.2 and 0.2 mg per mouse. The arrows show proMMP-9 dimer, proMMP-9 and proMMP-2. The experiment was repeated three times with similar results.
Balb/c mice at the age of 31-32 weeks were injected intraperitoneally with 3% (w/v) thioglycolate in sterile saline (32). Peptides ([…] in 100 μl) were introduced intravenously through the tail vein. Animals were euthanized after 3 h and the peritoneal cells were harvested by injecting 10 ml of sterile PBS through the peritoneal wall. Red blood cells present in the lavage fluid were removed by hypotonic lysis. Cells were centrifuged and resuspended in 1 ml of sterile 0.25% BSA/Krebs-Ringer. The supernatants were also collected and analysed by gelatin zymography. The number of neutrophils was determined following staining with 0.1% crystal violet and using a light microscope equipped with a ×100 objective. For immunofluorescence staining, cells were allowed to bind to poly-L-lysine coated cover slips, fixed with 2.5% paraformaldehyde in PBS at +4° C. for 30 min followed by several washings. The Fc receptors were blocked in the presence of 20% of rabbit serum and 3% BSA in PBS. The cells were then incubated with anti-MMP-9 polyclonal and αM monoclonal (MCA74) antibodies for 30 min. After washing with PBS, the secondary antibodies, rhodamine (TRITC)-conjugated anti-rabbit or FITC-conjugated anti-rat (Fab′)2 were incubated for another 30 min. The samples were examined with a confocal microscope. The animal studies were approved by an ethical committee of Helsinki University.

proMMP-8 (Homo sapiens) = target: T2, proMMP-8 (Homo sapiens); experiment: Binding of GST-αM I domain to immobilised proMMP-8 with competitors; conditions: competitors 50 μM; FIG. 4D
T2 construct: GST-αM and GST-αL I domain fusion proteins were expressed and purified as described previously (30); made in house
T2 sequence (P11215 150-328 limits assumed): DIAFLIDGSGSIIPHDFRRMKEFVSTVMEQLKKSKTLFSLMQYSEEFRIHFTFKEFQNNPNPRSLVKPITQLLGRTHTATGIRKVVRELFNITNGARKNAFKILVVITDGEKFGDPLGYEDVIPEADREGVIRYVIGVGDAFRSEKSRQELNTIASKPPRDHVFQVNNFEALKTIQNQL
Protocol: (§2) (4D) Binding of GST-αM I domain to the immobilised proMMP-8, proMMP-9, ICAM-1, and fibrinogen was studied with ICAM-1, DDGW or KKGW (50 μM) as competitors. In control wells, GST was added instead of GST-αM I domain. The experiment was repeated three times with similar results.
as §1

proMMP-9 (Homo sapiens) = target: T3, proMMP-9 (Homo sapiens); experiment: Binding of GST-αM I domain to immobilised proMMP-9 with competitors; conditions: competitors 50 μM; FIG. 4D
T3 construct: GST-αM and GST-αL I domain fusion proteins were expressed and purified as described previously (30); made in house
T3 sequence (P11215 150-328 limits assumed): as above
Protocol: as §2, §1

PMNs [3] = experiment: PMN transwell migration on LLG-C4-GST coated filters; type: cell-based, human; conditions: LLG-C4-GST substratum; peptides 200 μM, antibodies 20 μg/ml; 20 nM PMA; FIG. 6A
Protocol: (§3) FIG. 6A to 6D. Blockage of PMN and THP-1 cell migration in vitro by gelatinase and β2 integrin inhibitors. PMNs (1×10^5 in 100 μl) were applied on the LLG-C4-GST or GST coated surface (6A) or HMEC monolayer (6B) in the absence or presence of peptides (200 μM) or antibodies (20 μg/ml) as indicated. PMNs were stimulated with 20 nM PMA (6A), HMECs with […] or 10 ng/ml TNFα or left untreated (6B). THP-1 cells (5×10^4 in 100 μl) were stimulated with 50 nM PMA and applied on the coated surfaces together with each peptide (200 μM) (6C). The cells migrated through transwell filters were stained and counted microscopically. All experiments were repeated at least twice. (6D) Phorbol ester-activated THP-1 cells (5×10^4 in 100 μl) were incubated for 16 h at +37° C. in the presence or absence of peptides as indicated. The conditioned medium was analyzed by gelatin zymography.
(§4) Cell migration was conducted using Costar 24-transwell migration chambers with a 3 μm pore size for PMNs and 8 μm for THP-1 cells. To study β2 integrin-directed migration, the chamber membrane was coated on both sides with LLG-C4-GST integrin ligand (40 μg/ml) or GST as a control and blocked with 10% serum-containing medium (16). […] The non-migrated cells were removed from the upper surface by a cotton swab and the cells that had traversed the filters were stained with crystal violet and counted.

PMNs [4] = experiment: PMN transendothelial migration through HMEC monolayer; type: cell-based, human; conditions: chemotaxis with C5a or TNF-α, peptides 200 μM, antibodies 20 μg/ml, FIG. 6B
Protocol: as §3, §4

THP-1 cells [5] = experiment: THP-1 cell migration through LLG-C4-GST coated transwell filters; type: cell-based, human; conditions: LLG-C4GST coated filters; 50 nM PMA; peptides 200 μM; 16 h; FIG. 6C
Protocol: as §3, §4

[6] = tested on: leukocyte primary adhesion to ICAM-1, fibrinogen or LLG-C4GST; experiment: Leukocyte primary adhesion to ICAM-1, fibrinogen or LLG-C4GST; type: cell-based
THP-1 cells [7] = conditions: FI 2003 0923; cited from earlier work
THP-1 cells [8] = experiment: Effect of peptides on gelatinase release from THP-1 cells (gelatin zymography); type: cell-based, human; conditions: phorbol ester-activated cells; peptides 200 μM; 16 h; FIG. 6D
Protocol: as §3
THP-1 cells (50 000/100 μl) were incubated in serum-free RPMI for 16 h in the presence or absence of peptides (200 μM) as described in the text The supernatants from THP-1 cells and mouse intraperitoneal fluid were analysed by gelatin zymography. Gelatinolytic activity was quantified by densitometric scanning.

MMP-9 catalytic domain = experiment: Binding to the MMP-9 catalytic domain (unpublished results)
Chain of MMP-9 catalytic domain (P14780 107-444 limits assumed): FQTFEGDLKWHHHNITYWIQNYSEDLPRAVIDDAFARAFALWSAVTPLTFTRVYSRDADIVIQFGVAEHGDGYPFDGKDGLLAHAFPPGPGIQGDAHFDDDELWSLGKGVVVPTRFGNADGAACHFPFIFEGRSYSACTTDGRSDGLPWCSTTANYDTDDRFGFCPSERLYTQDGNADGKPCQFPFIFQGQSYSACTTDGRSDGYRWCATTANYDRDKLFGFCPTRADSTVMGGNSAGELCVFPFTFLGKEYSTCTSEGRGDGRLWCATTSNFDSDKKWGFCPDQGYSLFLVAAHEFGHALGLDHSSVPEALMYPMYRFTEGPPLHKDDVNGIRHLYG

T1 sequence (P11215 150-328 limits assumed): as the sequence (P11215 150-328 limits assumed) above

inhibition of proMMP-9 binding to the αM I domain (in words) (αM I domain): without effect
inhibition of PMN adherence on proMMP-9 (PMNs [1]): no effect
Molecule: ADGACILWMKKGWCGAAG [control peptide for DDGW]
inhibition of intraperitoneal accumulation of PMNs [2]: no effect

inhibition of proMMP-9 binding to the αM I domain (in words) (αM I domain): equally potent
competition with αM I domain binding to proMMP-8 (proMMP-8 (Homo sapiens)): inhibitable
competition with αM I domain binding to proMMP-9 (proMMP-9 (Homo sapiens)): inhibitable
inhibition of PMN adherence on proMMP-9 (PMNs [1]): inhibited
Molecule: ADGACILWMDDGWCGAAG
inhibition of migration of PMA-stimulated PMNs (PMNs [3]): worked similarly
inhibition of PMN transendothelial migration (PMNs [4]): inhibition
inhibition of THP-1 migration (THP-1 cells [5]): inhibited
activity on intraperitoneal PMN accumulation ([2]; 5 μg given per mouse, intravenous): active
prevention of thioglycolate-induced increase in gelatinase levels in intraperitoneal fluid (zymography) [2]: prevented the increase
effective dose ([2]; corresponding to 5 μg given per mouse): 0.1 mg/kg mouse tissue
inhibition of intraperitoneal accumulation of PMNs [2]: inhibited
inhibition of leukocyte primary adhesion to ICAM-1, fibrinogen or LLG-C4GST [6]: unable to inhibit
release of proMMP-9 from THP-1 cells (previous studies) (THP-1 cells [7]): can release proMMP-9

inhibition of proMMP-9 binding to the αM I domain (in words) (αM I domain): inactive
inhibition of PMN adherence on proMMP-9 (PMNs [1]): no effect
Molecule: DFEDHD
release of proMMP-9 from THP-1 cells (THP-1 cells [8]): did not induce
prevention of thioglycolate-induced increase in gelatinase levels in intraperitoneal fluid (zymography) [2]: not
inhibition of intraperitoneal accumulation of PMNs [2]: no effect

competition with αM I domain binding to proMMP-8 (proMMP-8 (Homo sapiens)): did not compete
competition with αM I domain binding to proMMP-9 (proMMP-9 (Homo sapiens)): did not compete
Molecule: fibrinogen

IC50 (αM I domain; read-out: inhibition of proMMP-9 binding to the αM I domain, IC50): 20 µM
Molecule: HFDDDE [HFDDDE]

inhibition of PMN adherence on proMMP-9 (PMNs [1]): inhibited
binding to the MMP-9 catalytic domain (MMP-9 catalytic domain): binds
Molecule: CTITHWGFTLC [CTT]
inhibition of migration of PMA-stimulated PMNs (PMNs [3]): worked similarly
inhibition of PMN transendothelial migration (PMNs [4]): inhibition
inhibition of THP-1 migration (THP-1 cells [5]): inhibited

competition with αM I domain binding to proMMP-8 (proMMP-8 (Homo sapiens)): did not compete
competition with αM I domain binding to proMMP-9 (proMMP-9 (Homo sapiens)): did not compete
B1: ICAM-1: intracellular adhesion molecule 1, β2 integrin ligand used as competitor (protein, UniProt P05362 28-532, looked up)
Intercellular adhesion …: QTSVSPSKVILPRGGSVLVTCSTSCDQPKLLGIETPLPKKELLLPGNNRKVYELSNVQEDSQPMCYSNCPDGQSTAKTFLTVYWTPERVELAPLPSWQPVGKNLTLRCQVEGGAPRANLTVVLLRGEKELKREPAVGEPAEVTTTVLVRRDHHGANFSCRTELDLRPQGLELFENTSAPYQLQTFVLPATPPQLVSPRVLEVDTQGTVVCSLDGLFPVSEAQVHLALGDQRLNPTVTYGNDSFSAKASVSVTAEDEGTQRLTCAVILGNQSQETLQTVTIYSFPAPNVILTKPEVSEGTEVTVKCEAHPRAKVTLNGVPAQPLGPRAQLLLKATPEDNGRSFSCSATLEVAGQLIHKNQTRELRVLYGPRLDERDCPGNWTWPENSQQTPMCQAWGNPLPELKCLKDGTFPLPIGESVTVTRDLEGTYLCRARSTQGEVTRKVTVNVLSPRYEIVIITVVAAAVIMGTAGLSTYLYNRQRKIKKYRLQQAQKGTPMKPNTQATPP

Source: patent publication US20070099839A1, “Inhibitors of cell migration” (CIT CANCER TARGETING TECHNOLOGIES, priority 2001, published 2007)
